{"source": "ChEMBL document CHEMBL4190187", "about": "“Discovery of pyrazolopyrimidine derivatives as novel inhibitors of ataxia telangiectasia and rad3 related protein (ATR)” (Bioorg Med Chem Lett, 2017)", "key": {"[1]": {"molecular_target": "Wee1-like protein kinase 2 (Homo sapiens) (UniProt P0C1S8)", "assay": "Inhibition of recombinant full-length human Wee1B at 1 uM using LSNLYHQGKFLQTFCGSPLYRRR as substrate after 120 mins in presence of [gamma-33P]ATP by scintillation counting method"}, "[2]": {"tested_on": "Platelet-derived growth factor receptor alpha (Homo sapiens), P16234 [D842V]", "sequence (P16234 whole entry D842V)": "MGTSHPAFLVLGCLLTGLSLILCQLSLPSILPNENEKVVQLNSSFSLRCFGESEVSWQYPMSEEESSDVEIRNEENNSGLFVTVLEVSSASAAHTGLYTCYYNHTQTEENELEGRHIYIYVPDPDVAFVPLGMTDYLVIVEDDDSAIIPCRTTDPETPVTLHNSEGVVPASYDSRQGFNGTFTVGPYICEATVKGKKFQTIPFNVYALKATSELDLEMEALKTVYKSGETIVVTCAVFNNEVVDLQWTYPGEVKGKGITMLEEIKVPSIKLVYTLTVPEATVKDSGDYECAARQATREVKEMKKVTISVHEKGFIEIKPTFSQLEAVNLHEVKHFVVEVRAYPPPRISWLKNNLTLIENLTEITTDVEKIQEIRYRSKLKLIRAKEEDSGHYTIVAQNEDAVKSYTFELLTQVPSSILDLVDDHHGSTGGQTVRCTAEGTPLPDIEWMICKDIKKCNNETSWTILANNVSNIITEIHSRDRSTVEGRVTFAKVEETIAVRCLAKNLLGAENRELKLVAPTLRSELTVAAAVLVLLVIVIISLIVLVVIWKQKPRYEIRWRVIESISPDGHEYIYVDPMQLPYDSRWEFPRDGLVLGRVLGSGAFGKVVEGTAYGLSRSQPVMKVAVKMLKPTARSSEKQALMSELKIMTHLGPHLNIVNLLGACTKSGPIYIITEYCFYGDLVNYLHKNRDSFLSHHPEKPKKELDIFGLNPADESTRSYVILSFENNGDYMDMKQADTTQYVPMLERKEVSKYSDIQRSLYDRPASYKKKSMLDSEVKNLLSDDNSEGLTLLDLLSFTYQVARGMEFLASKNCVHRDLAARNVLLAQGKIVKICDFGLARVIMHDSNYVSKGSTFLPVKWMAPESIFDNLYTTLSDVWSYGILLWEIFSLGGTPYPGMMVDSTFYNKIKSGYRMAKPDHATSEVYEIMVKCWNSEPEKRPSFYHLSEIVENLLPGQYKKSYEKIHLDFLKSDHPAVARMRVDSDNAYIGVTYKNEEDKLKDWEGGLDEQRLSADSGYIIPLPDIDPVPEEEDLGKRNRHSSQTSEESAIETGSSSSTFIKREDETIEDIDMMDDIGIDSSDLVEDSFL", "assay": "Inhibition of recombinant human PDGFRalpha D842V mutant (550 to end residues) at 1 uM using GGMEDIYFEFMGGKKK as substrate after 40 mins in presence of [gamma-33P]ATP by scintillation counting method"}, "[3]": {"molecular_target": "Mitogen-activated protein kinase kinase kinase kinase 3 (Homo sapiens) (UniProt Q8IVH8)", "sequence (Q8IVH8 whole entry, the tested form may be a part)": "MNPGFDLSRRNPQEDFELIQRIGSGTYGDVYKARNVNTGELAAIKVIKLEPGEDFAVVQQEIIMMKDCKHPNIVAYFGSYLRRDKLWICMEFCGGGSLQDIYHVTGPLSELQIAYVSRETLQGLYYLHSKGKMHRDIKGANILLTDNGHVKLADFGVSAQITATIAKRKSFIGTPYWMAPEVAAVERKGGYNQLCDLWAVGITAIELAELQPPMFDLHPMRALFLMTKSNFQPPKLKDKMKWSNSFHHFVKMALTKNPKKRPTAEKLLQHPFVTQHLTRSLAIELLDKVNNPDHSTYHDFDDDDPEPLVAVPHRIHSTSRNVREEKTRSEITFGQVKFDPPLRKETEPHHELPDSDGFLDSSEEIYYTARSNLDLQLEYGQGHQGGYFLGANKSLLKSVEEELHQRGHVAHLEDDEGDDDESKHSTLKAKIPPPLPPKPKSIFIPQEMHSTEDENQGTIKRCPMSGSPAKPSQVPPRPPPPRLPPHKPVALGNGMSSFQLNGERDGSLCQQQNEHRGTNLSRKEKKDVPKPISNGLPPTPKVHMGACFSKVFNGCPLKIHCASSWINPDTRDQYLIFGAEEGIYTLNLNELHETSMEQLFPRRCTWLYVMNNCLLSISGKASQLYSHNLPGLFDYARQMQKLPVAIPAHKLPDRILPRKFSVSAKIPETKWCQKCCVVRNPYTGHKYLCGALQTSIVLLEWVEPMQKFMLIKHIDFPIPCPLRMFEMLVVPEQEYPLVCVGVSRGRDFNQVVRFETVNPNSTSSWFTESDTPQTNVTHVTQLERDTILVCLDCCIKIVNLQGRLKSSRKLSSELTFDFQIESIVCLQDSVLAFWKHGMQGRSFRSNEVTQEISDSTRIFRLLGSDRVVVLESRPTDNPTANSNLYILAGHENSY", "assay": "Inhibition of recombinant human MAP4K3 (1 to 291 residues) at 1 uM using RRRFRPASPLRGPPK as substrate after 40 mins in presence of [gamma-33P]ATP by scintillation counting method"}, "[4]": {"molecular_target": "Insulin-like growth factor 1 receptor (Homo sapiens) (UniProt P08069)", "sequence (P08069 31-736 limits assumed)": "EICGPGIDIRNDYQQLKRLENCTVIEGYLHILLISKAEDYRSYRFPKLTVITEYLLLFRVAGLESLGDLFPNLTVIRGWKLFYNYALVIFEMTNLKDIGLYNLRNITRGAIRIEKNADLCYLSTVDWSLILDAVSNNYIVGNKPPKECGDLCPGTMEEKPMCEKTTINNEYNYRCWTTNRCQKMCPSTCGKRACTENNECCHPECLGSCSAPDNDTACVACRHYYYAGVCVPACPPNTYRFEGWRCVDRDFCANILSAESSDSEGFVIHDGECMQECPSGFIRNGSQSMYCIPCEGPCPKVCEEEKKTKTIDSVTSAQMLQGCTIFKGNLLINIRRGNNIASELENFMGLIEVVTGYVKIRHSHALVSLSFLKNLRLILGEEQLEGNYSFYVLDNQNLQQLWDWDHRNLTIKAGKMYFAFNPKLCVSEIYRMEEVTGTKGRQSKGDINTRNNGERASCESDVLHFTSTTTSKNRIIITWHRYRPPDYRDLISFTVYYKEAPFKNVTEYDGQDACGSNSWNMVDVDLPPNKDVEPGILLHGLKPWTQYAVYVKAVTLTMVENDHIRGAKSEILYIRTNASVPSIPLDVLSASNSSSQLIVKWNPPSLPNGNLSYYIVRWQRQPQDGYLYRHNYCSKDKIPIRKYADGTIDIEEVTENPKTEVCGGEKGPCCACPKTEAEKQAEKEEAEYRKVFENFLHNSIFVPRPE", "sequence (P08069 741-1367 limits assumed)": "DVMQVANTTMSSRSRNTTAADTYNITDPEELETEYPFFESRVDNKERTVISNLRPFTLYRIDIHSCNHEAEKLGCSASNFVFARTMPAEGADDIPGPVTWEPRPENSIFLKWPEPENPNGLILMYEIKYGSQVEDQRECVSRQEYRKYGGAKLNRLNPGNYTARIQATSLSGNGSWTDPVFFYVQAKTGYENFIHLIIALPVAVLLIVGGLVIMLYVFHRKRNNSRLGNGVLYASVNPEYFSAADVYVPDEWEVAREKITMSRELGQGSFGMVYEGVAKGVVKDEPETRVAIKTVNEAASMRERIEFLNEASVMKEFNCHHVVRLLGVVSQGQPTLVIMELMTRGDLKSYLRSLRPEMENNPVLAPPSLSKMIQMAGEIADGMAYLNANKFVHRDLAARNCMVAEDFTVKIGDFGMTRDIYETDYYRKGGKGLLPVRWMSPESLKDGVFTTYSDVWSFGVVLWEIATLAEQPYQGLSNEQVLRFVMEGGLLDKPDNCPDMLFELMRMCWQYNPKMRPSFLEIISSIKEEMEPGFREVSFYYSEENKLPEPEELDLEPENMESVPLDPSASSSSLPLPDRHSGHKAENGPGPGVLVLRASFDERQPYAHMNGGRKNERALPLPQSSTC", "assay": "Inhibition of recombinant human activated IGF-1R (959 to end residues) at 1 uM using KKKSPGEYVNIEFG as substrate after 40 mins in presence of [gamma-33P]ATP by scintillation counting method"}, "[5]": {"molecular_target": "Serine/threonine-protein kinase pim-1 (Homo sapiens) (UniProt P11309)", "sequence (P11309 whole entry, looked up)": "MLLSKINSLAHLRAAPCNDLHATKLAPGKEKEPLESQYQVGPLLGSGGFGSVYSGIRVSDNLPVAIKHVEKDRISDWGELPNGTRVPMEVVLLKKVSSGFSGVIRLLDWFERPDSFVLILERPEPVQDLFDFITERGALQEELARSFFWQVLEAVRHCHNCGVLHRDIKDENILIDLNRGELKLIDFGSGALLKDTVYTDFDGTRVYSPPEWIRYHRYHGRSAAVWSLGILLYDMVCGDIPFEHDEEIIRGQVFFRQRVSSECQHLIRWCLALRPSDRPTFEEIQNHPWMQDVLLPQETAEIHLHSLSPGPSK", "assay": "Inhibition of recombinant full-length human PIM1 at 1 uM using KKRNRTLTV as substrate after 40 mins in presence of [gamma-33P]ATP by scintillation counting method"}, "[6]": {"molecular_target": "Tyrosine-protein kinase receptor TYRO3 (Homo sapiens) (UniProt Q06418)", "assay": "Inhibition of recombinant human Rse (451 to end residues) at 1 uM using KVEKIGEGTYGVVYK as substrate after 40 mins in presence of [gamma-33P]ATP by scintillation counting method"}, "[7]": {"tested_on": "Hepatocyte growth factor receptor (Homo sapiens), P08581 [Y1248C]", "sequence (P08581 with tags, fused parts or gaps Y1248C)": "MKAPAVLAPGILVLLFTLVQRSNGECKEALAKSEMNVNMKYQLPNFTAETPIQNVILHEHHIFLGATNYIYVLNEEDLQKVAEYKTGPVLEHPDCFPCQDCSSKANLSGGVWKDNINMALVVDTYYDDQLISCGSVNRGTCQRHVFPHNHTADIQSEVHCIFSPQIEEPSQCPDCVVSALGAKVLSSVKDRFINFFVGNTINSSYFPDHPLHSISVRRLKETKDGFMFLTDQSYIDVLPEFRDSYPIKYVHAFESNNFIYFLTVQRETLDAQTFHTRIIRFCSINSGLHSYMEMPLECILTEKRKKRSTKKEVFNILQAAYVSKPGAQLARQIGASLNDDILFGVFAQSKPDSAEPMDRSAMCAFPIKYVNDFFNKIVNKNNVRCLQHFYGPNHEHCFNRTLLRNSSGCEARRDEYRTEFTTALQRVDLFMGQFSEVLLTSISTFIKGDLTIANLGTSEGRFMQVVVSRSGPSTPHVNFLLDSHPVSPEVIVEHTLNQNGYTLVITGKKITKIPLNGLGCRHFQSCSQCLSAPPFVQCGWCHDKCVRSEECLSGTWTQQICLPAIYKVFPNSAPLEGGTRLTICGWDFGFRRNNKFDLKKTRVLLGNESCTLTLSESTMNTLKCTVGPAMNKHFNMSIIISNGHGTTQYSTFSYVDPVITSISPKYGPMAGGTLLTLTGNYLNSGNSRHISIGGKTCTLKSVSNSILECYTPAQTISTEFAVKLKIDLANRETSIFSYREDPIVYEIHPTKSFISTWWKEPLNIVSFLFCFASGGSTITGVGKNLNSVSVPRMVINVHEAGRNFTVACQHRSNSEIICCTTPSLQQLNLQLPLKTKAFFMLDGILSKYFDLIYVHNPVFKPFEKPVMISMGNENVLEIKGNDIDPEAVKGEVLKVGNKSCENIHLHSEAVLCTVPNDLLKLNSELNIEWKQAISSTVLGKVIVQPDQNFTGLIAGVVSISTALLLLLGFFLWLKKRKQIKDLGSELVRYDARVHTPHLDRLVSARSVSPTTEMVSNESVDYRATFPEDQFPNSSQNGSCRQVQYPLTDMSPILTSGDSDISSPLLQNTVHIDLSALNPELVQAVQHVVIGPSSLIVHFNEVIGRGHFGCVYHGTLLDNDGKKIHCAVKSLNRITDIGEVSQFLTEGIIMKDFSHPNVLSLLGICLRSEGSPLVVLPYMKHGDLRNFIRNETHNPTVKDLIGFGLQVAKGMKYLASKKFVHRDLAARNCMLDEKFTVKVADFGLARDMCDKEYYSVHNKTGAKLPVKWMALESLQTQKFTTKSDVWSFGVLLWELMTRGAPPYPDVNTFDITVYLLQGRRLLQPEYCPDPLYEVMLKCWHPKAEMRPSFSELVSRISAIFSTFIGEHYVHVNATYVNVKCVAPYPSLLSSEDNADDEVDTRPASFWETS", "assay": "Inhibition of recombinant human Met Y1248C mutant (974 to end residues) at 1 uM using KKKGQEEEYVFIE as substrate after 40 mins in presence of [gamma-33P]ATP by scintillation counting method"}}, "data": [{"smiles": "CS(=O)(=O)c1ccc(-n2nc(-c3cnc4[nH]ccc4c3)c3c(N)ncnc32)cc1", "values": [{"measurement": "inhibition", "setting": "[1]", "value": -3, "unit": "%"}, {"measurement": "inhibition", "setting": "[2]", "value": 47, "unit": "%"}, {"measurement": "inhibition", "setting": "[3]", "value": 2, "unit": "%"}, {"measurement": "inhibition", "setting": "[4]", "value": 11, "unit": "%"}, {"measurement": "inhibition", "setting": "[5]", "value": -2, "unit": "%"}, {"measurement": "inhibition", "setting": "[6]", "value": 4, "unit": "%"}, {"measurement": "inhibition", "setting": "[7]", "value": 3, "unit": "%"}]}]}
